Source: article PMC4038472, “Exploring the Potential of Flubendazole in Filariasis Control: Evaluation of the Systemic Exposure for Different Pharmaceutical Preparations” (PLoS Neglected Tropical Diseases, 2014)
Read-outs that look alike come from different tables or passages of the source.

Columns and labels:
[1] = type: in vivo; settings: for Time at which peak plasma concentrations were observed: range according to the experimental group and animal species (rats and jirds), FLBZ 5 mg/kg
Procedure: (§1) Jirds and rats were randomly allocated into four experimental groups (44 animals each). Experimental animals received the following treatments: FLBZ-CDoral, dosed orally (administered volume 0.25 and 1 mL for jirds and rats, respectively) in a CD-based solution (Cavasol); FLBZ-CDsc, dosed subcutaneously (sc) (injection volume of 0.25 and 1 mL for jirds and rats, respectively) in a CD-based solution (Cavitron); FLBZ-TWEEN, dosed sc (injection volume of 0.1 and 0.4 mL for jirds and rats, respectively) in a Tween-based formulation; and FLBZ-CMC, dosed orally (same volume as for FLBZ-CDoral) in a CMC-based suspension. The oral dose was administered using an intragastric tube. All treatments were given as a single dose of 5 mg/kg. The dose was selected because it is the dose previously reported in efficacy studies performed in the murine model. At defined time-points following treatment (5, 15 and 30 min, 1, 2, 3, 4, 6, 9, 12 and 16 h), blood samples were collected (n = 4 per time point) in heparinized plastic tubes. Plasma was separated by centrifugation at 2000× g for 15 min, placed into plastic tubes and frozen at −20°C until analysis by HPLC to quantify FLBZ, R-FLBZ and H-FLBZ plasma concentrations. After sc administration of the formulations, potential injection site reactions were evaluated by direct visual observation at the sampling time.
Chromatography was performed on a Shimadzu HPLC platform (Shimadzu Corporation, Kyoto, Japan), with two LC-10AS solvent pumps, an automatic sample injector (SIL-10A) with a 50 µL loop, an ultraviolet-visible spectrophotometric detector (UV) (SPD-10A) reading at 292 nm, a column oven (Eppendorf TC-45, Eppendorf, Madison, WI, USA) set at 30°C, and a CBM-10A integrator. Data and chromatograms were collected and analyzed using the Class LC10 software (SPD-10A, Shimadzu Corporation, Kyoto, Japan). The C18 reversed-phase column (5 µm, 250 mm×4.6 mm) was Kromasil (Kromasil®, Sweden). […]
Plasma samples (100 or 200 µL for jirds and rats, respectively) were spiked with OBZ as internal standard. […] Complete validation of the analytical procedures for extraction and quantification of drug and metabolites in plasma was performed before starting the analysis of experimental samples. […] The limit of quantification (FLBZ and metabolites was 0.01 µg/mL), defined as the lowest measured concentration with a CV <20%, accuracy of ±20% and absolute recovery ≥70%.
The peak concentration (Cmax) and time to peak concentration (Tmax) were read from the plotted concentration–time curve for each analyte. The area under the concentration–time curve from 0 up to the limit of quantification (AUC0-LOQ) for FLBZ and metabolites was calculated by the trapezoidal rule, using the PKSolutionTM computer program (Summit Research Services, Ashland, OR, USA). […]

[2] = mouse, in vivo; cited from earlier work
[3] = set-up: method as in earlier work; settings: pigs after FLBZ treatment; cited from earlier work
[4] = Plasma pharmacokinetics of FLBZ and metabolites after oral or sc FLBZ formulations in jirds; type: in vivo, jirds (Meriones unguiculatus)
Procedure: as §1, with “All treatments were given as a single dose of 5 mg/kg. The dose was selected because it is the dose previously reported in efficacy studies performed in the murine model. At defined time-points following treatment (5, 15 and 30 min, 1, 2, 3, 4, 6, 9, 12 and 16 h), blood samples were collected (n = 4 per time point) in heparinized plastic tubes.” left out
Chromatography was performed on a Shimadzu HPLC platform (Shimadzu Corporation, Kyoto, Japan), with two LC-10AS solvent pumps, an automatic sample injector (SIL-10A) with a 50 µL loop, an ultraviolet-visible spectrophotometric detector (UV) (SPD-10A) reading at 292 nm, a column oven (Eppendorf TC-45, Eppendorf, Madison, WI, USA) set at 30°C, and a CBM-10A integrator. […]

SMILES	Time at which peak plasma concentrations were observed [1]	Increase of systemic exposure compared to the conventional FLBZ suspension [2]	Plasma AUC, fold higher than conventional suspension [2]	Plasma Cmax, fold higher than conventional suspension [2]	H-FLBZ as share of total drug measured in the bloodstream [3]	H-FLBZ concentrations as share of the total amount of drug recovered in plasma ([4]; FLBZ-CD (oral or sc) or FLBZ-TWEEN, 5 mg/kg)	Amount of R-FLBZ metabolite present in the bloodstream ([1]; rat, in vivo)	R-FLBZ AUC0-LOQ as share of the total drug recovered from plasma ([1]; rat, in vivo, 5 mg/kg)	R-FLBZ AUC0-LOQ as share of the total drug recovered from plasma ([4]; the different groups, FLBZ 5 mg/kg)
COC(=O)Nc1nc2cc(C(=O)c3ccc(F)cc3)ccc2[nH]1 [FLBZ, flubendazole]	0.7 to 3.2 h	more than 25 fold	27 fold	28 fold	–	–	–	–	–
Nc1nc2cc(C(=O)c3ccc(F)cc3)ccc2[nH]1 [H-FLBZ]	3.0 to 5.2 h	–	–	–	97%	10–20%	–	–	–
COC(=O)Nc1nc2ccc(C(O)c3ccc(F)cc3)cc2[nH]1 (stereo not shown) [R-FLBZ]	–	–	–	–	–	–	only trace amounts	about 10%	about 10%
